Experiments:
[1] = target: T1, C-X-C chemokine receptor type 2 (Homo sapiens, UniProt P25025); type: cell membranes, Membrane; conditions: cho-k1; note: in other assays of this panel Not Active means under 50% inhibition at 10 µM
T1 sequence (P25025 whole entry): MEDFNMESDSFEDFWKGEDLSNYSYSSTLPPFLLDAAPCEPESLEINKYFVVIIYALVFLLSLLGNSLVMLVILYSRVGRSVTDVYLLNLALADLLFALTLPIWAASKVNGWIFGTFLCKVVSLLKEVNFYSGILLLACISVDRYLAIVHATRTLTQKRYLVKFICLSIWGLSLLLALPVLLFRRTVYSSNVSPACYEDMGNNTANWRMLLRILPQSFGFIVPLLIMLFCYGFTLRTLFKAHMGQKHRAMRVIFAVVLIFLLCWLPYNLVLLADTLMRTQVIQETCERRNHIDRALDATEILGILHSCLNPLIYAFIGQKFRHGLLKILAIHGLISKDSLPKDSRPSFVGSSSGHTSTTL

[2] = target: Beta-1 adrenergic receptor (Homo sapiens, UniProt P08588); test: DRUGMATRIX: Adrenergic beta1 radioligand binding (ligand: [125I] Cyanopindolol); type: cell membranes, CHO-K1, Membrane; conditions: cho-k1; Not Active = under 50% inhibition at 10 µM
[3] = target: Delta-type opioid receptor (Homo sapiens, UniProt P41143); type: cell membranes, HEK293, Membrane; conditions: hek293; note: in other assays of this panel Not Active means under 50% inhibition at 10 µM
[4] = DRUGMATRIX: Phorbol Ester radioligand binding (ligand: [3H] PDBu); type: cell membranes, Mus musculus, ICR, Brain, Membrane; conditions: Not Active = under 50% inhibition at 10 µM
[5] = DRUGMATRIX: Glutamate, NMDA, Phencyclidine radioligand binding (ligand: [3H] TCP); type: cell membranes, Rattus norvegicus, Wistar, Cerebral cortex, Membrane; conditions: Not Active = under 50% inhibition at 10 µM
[6] = target: T2, C-X-C chemokine receptor type 1 (Homo sapiens, UniProt P25024); note: in other assays of this panel Not Active means under 50% inhibition at 10 µM
T2 sequence (P25024 whole entry): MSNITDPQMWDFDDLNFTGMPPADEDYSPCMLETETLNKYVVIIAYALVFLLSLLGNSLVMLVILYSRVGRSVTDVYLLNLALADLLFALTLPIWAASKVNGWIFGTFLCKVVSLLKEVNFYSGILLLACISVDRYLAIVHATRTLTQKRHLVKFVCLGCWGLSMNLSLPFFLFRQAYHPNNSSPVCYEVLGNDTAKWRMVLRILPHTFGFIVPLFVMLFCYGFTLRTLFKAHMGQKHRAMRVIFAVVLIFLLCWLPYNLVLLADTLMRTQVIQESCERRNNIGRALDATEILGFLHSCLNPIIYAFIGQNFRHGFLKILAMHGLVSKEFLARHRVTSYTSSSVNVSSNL

[7] = DRUGMATRIX: Imidazoline I2, Central radioligand binding (ligand: [3H] Idazoxan); type: cell membranes, Rattus norvegicus, Wistar, Cerebral cortex, Membrane; conditions: Not Active = under 50% inhibition at 10 µM
[8] = target: Mitogen-activated protein kinase 14 (Homo sapiens, UniProt Q16539); design: species or system Escherichia coli;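 note: inhibition of p38alpha enzyme activity in a biochemical kinase assay, with myelin basic protein serving as substrate; in other assays of this panel Not Active means under 50% inhibition at 10 µM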
[9] = target: Insulin receptor (Rattus norvegicus, UniProt P15127); type: cell membranes, Wistar, Liver, Membrane; note: in other assays of this panel Not Active means under 50% inhibition at 10 µM
[10] = target: Cannabinoid receptor 1 (Homo sapiens, UniProt P21554); type: cell membranes, Membrane; conditions: chem-1; note: in other assays of this panel Not Active means under 50% inhibition at 10 µM
[11] = target: Tyrosine-protein kinase Fyn (Homo sapiens, UniProt P06241); test: biochemical; type: cell-based, Insect cells; conditions: insect cells
[12] = DRUGMATRIX: Interleukin IL-1 radioligand binding (ligand: [125I] interleukin 1beta); type: cell membranes, Membrane; conditions: nih3t3; Not Active = under 50% inhibition at 10 µM
[13] = target: Vascular endothelial growth factor receptor 1 (Homo sapiens, UniProt P17948); type: cell-based; conditions: huvec; note: in other assays of this panel Not Active means under 50% inhibition at 10 µM
[14] = target: T3, 5-hydroxytryptamine receptor 2C (Homo sapiens, UniProt P28335); test: DRUGMATRIX: Serotonin (5-Hydroxytryptamine) 5-HT2C radioligand binding (ligand: [3H] Mesulergine); type: cell membranes, CHO-K1, Membrane; conditions: cho-k1; Not Active = under 50% inhibition at 10 µM
T3 sequence (P28335 whole entry): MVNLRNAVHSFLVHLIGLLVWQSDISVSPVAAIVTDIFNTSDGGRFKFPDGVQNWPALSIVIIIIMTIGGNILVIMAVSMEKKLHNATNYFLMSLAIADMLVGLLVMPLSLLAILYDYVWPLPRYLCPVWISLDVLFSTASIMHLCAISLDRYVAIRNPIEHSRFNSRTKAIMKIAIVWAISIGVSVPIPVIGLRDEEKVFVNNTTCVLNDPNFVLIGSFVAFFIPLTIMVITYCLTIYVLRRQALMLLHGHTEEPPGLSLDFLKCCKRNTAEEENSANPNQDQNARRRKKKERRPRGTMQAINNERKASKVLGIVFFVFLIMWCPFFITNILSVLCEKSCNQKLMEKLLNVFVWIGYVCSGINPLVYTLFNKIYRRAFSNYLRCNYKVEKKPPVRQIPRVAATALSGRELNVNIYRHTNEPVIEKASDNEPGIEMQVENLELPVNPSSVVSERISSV

[15] = target: T4, Neutrophil elastase (Homo sapiens, UniProt P08246); type: tissue-based
T4 sequence (P08246 whole entry): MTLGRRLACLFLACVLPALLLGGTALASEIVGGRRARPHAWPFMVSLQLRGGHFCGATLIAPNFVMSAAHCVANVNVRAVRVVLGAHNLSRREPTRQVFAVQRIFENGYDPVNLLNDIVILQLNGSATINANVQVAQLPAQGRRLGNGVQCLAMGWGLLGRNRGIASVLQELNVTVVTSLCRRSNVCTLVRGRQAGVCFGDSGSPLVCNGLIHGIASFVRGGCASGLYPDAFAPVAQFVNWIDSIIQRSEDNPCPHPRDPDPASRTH

[16] = DRUGMATRIX: Leukotriene, BLT (LTB4) radioligand binding (ligand: [3H]LTB4); type: cell membranes, Membrane; conditions: u-937; Not Active = under 50% inhibition at 10 µM
[17] = target: Tyrosine-protein kinase Lck (Homo sapiens, UniProt P06239); test: DRUGMATRIX: Protein Tyrosine Kinase, LCK enzyme inhibition (substrate: Poly(Glu:Tyr)); type: cell-based, Insect cells; conditions: insect cells; Not Active = under 50% inhibition at 10 µM
[18] = target: Sigma non-opioid intracellular receptor 1 (Homo sapiens, UniProt Q99720); test: DRUGMATRIX: Sigma1 radioligand binding (ligand: [3H] Haloperidol); type: cell membranes, Jurkat, Membrane; conditions: jurkat; Not Active = under 50% inhibition at 10 µM

Tyrosine-protein kinase Lck, sequence (P06239 whole entry): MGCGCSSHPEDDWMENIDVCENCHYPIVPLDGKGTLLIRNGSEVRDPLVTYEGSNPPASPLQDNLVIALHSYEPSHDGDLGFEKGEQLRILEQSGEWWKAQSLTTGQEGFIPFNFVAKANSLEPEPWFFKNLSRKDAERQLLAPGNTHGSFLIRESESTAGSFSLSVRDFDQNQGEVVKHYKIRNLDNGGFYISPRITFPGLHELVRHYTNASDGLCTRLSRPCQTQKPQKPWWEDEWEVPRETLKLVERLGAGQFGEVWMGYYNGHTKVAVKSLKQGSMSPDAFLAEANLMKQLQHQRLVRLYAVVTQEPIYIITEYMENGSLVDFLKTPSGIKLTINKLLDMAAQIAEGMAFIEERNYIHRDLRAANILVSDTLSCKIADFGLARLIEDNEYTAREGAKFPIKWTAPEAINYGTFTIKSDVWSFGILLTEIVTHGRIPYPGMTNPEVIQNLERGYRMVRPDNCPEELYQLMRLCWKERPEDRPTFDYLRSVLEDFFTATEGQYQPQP
Insulin receptor, sequence (P15127 27-759 limits assumed): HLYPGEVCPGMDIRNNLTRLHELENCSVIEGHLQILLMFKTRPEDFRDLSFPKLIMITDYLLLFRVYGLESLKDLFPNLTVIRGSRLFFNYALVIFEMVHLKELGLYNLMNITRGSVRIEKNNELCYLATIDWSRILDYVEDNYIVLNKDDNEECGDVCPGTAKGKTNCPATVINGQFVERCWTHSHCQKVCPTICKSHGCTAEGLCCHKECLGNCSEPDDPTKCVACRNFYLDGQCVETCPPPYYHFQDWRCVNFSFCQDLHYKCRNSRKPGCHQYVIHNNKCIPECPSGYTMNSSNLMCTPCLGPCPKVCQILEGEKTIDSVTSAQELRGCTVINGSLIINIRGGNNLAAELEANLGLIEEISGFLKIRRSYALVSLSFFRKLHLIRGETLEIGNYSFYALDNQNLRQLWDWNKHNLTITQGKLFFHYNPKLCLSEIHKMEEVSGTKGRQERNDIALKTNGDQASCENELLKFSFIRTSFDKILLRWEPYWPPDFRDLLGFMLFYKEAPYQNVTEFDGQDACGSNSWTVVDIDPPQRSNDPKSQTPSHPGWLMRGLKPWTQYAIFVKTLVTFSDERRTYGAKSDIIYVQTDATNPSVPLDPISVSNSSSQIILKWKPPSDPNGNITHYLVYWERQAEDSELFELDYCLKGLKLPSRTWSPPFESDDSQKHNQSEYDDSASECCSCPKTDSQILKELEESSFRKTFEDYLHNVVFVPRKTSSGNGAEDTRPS
Insulin receptor, sequence (P15127 764-1383 limits assumed): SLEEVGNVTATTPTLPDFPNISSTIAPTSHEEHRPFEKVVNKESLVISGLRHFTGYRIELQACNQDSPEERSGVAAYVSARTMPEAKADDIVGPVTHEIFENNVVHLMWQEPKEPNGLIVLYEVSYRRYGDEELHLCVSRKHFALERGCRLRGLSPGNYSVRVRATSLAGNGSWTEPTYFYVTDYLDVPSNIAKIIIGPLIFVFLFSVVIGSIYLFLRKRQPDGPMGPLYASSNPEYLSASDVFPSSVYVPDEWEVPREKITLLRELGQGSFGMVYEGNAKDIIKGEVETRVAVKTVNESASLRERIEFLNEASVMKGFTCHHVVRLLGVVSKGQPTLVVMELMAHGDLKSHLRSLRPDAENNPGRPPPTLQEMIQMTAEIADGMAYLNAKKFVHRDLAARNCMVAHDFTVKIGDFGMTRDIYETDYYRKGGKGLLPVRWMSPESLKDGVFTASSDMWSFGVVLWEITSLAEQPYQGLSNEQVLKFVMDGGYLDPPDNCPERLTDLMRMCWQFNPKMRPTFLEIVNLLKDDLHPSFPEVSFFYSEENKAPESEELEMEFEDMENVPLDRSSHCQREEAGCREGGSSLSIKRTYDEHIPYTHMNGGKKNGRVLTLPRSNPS
Vascular endothelial growth factor receptor 1, sequence (P17948 whole entry): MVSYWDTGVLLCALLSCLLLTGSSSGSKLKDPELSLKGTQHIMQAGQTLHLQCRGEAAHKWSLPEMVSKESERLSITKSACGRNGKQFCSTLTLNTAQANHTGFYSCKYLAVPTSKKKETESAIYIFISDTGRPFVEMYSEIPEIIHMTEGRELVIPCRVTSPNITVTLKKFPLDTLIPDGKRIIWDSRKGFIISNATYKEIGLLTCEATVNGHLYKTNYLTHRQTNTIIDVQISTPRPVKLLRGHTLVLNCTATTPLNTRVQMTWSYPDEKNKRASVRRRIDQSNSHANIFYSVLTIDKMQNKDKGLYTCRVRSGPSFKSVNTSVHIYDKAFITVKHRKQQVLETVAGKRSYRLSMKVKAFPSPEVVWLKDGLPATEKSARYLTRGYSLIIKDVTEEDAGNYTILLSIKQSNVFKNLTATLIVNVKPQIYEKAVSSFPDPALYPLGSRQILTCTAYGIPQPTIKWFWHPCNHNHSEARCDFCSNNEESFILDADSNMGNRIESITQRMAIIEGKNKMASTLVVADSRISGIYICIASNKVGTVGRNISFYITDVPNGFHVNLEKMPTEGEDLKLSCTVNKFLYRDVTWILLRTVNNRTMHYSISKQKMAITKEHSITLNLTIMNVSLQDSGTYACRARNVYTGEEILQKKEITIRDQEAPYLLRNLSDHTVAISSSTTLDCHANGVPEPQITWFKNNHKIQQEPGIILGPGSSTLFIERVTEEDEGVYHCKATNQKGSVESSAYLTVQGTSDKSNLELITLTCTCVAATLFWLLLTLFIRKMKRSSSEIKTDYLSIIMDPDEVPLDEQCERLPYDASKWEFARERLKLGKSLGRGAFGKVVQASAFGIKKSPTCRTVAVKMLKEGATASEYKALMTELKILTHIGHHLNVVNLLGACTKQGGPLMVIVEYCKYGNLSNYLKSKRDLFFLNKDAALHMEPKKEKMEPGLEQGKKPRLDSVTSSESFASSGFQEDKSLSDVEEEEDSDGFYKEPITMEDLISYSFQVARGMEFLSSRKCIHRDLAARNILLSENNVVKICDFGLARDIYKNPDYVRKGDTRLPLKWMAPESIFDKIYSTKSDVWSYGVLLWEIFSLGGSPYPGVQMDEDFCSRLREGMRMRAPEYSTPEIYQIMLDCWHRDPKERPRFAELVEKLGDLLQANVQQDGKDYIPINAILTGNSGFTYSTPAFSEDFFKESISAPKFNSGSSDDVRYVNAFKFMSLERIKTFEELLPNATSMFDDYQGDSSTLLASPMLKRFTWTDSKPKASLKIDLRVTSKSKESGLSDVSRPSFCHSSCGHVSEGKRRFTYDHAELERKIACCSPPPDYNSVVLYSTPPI
Beta-1 adrenergic receptor, sequence (P08588 whole entry): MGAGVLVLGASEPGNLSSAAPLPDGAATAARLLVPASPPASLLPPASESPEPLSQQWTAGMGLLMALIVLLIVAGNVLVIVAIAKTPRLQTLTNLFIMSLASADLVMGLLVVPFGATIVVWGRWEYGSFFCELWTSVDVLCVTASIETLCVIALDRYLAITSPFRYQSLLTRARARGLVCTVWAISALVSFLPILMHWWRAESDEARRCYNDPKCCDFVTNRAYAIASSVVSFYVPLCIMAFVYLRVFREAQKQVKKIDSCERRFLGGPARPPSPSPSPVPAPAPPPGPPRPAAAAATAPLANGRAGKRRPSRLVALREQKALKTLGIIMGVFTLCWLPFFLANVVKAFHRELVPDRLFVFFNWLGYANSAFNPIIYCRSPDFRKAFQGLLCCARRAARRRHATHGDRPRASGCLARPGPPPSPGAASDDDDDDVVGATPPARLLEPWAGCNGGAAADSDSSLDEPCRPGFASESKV
Tyrosine-protein kinase Fyn, sequence (P06241 whole entry): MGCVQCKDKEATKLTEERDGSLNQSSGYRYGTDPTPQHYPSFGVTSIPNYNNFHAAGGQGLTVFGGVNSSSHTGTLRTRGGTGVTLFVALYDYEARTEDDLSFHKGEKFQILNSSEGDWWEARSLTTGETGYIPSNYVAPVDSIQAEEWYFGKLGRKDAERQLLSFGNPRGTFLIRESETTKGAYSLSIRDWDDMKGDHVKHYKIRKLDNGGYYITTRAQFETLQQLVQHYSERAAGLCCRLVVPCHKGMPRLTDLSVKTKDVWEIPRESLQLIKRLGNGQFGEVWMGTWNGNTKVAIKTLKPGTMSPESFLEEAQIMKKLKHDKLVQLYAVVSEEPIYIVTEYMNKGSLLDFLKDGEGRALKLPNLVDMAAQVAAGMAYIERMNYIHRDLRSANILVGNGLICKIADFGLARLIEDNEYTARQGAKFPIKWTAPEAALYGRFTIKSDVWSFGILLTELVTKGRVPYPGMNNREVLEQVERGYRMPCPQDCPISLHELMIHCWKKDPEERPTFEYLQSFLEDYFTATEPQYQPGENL
Cannabinoid receptor 1, sequence (P21554 whole entry): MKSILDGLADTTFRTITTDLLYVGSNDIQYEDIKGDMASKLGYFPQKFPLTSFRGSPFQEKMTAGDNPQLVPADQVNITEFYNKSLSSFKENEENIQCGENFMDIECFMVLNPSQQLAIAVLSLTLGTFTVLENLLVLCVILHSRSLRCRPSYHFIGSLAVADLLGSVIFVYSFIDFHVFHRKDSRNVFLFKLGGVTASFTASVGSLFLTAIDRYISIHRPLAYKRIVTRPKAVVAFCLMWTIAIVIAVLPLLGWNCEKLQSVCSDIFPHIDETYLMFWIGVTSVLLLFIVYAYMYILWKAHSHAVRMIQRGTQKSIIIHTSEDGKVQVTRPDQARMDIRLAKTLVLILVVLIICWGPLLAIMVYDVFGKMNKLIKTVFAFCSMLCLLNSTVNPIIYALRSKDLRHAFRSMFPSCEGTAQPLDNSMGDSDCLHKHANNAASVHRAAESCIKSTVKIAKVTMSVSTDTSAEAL
Mitogen-activated protein kinase 14, sequence (Q16539 whole entry): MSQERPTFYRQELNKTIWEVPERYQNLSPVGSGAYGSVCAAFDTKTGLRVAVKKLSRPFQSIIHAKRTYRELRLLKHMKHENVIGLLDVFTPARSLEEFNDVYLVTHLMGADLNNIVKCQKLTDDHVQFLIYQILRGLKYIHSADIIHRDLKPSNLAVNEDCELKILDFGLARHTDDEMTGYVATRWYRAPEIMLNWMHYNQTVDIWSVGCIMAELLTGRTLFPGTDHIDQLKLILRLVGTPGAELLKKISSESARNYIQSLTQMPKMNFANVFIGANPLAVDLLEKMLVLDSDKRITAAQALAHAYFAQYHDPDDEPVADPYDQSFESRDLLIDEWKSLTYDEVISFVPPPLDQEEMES

COCc1c(C(C)C)nc(C(C)C)c(/C=C/[C@@H](O)C[C@@H](O)CC(=O)O)c1-c1ccc(F)cc1 [CERIVASTATIN]
Not Active: IC50 [1] | IC50 [2] | IC50 [3] | IC50 [4] | Ki [4] | IC50 [5] | Ki [5] | IC50 [6] | IC50 [7] | Ki [7] | IC50 [8] | IC50 [9] | IC50 [10] | IC50 [11] | IC50 [12] | Ki [12] | IC50 [13] | IC50 [14] | IC50 [15] | IC50 [16] | Ki [16] | IC50 [17] | IC50 [18]

O=P1(NCCCl)OCCCN1CCCl (configuration not stated) [IFOSFAMIDE]
Not Active: IC50 [1] | IC50 [2] | IC50 [3] | IC50 [4] | Ki [4] | IC50 [5] | Ki [5] | IC50 [6] | IC50 [7] | Ki [7] | IC50 [8] | IC50 [9] | IC50 [10] | IC50 [11] | IC50 [12] | Ki [12] | IC50 [13] | IC50 [14] | IC50 [15] | IC50 [16] | Ki [16] | IC50 [17] | IC50 [18]

O=C1NC(=O)C(c2ccccc2)(c2ccccc2)N1 [PHENYTOIN]
Not Active: IC50 [1] | IC50 [2] | IC50 [3] | IC50 [4] | Ki [4] | IC50 [5] | Ki [5] | IC50 [6] | IC50 [7] | Ki [7] | IC50 [8] | IC50 [9] | IC50 [10] | IC50 [11] | IC50 [12] | Ki [12] | IC50 [13] | IC50 [14] | IC50 [15] | IC50 [16] | Ki [16] | IC50 [17] | IC50 [18]

O=C1CCc2cc(OCCCCc3nnnn3C3CCCCC3)ccc2N1 [CILOSTAZOL]
Not Active: IC50 [1] | IC50 [2] | IC50 [3] | IC50 [4] | Ki [4] | IC50 [5] | Ki [5] | IC50 [6] | IC50 [7] | Ki [7] | IC50 [8] | IC50 [9] | IC50 [10] | IC50 [11] | IC50 [12] | Ki [12] | IC50 [13] | IC50 [14] | IC50 [15] | IC50 [16] | Ki [16] | IC50 [17] | IC50 [18]

— ChEMBL document CHEMBL1909046, “DrugMatrix in vitro pharmacology data”
